Measurements from ChEMBL document CHEMBL1201862, “PubChem BioAssay data set” (2004).
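Method: 48-hour compound exposure of cells in 96-well plates, five concentrations, linear interpolation of endpoints. The concentration for 50% growth inhibition is given as GI50.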 Active and inactive are the calls of the source. No stated cut-off is given here; in the data, active = GI50 up to about 1.1 µM and inactive = higher.

Assays:
Assay in all cases: growth of human tumour cells (NCI), 48 h
SF-268 = test system: SF-268
RPMI-8226 = test system: RPMI-8226
NCI-H522 = test system: NCI-H522
OVCAR-4 = test system: OVCAR-4
COLO 205 = test system: COLO 205
UO-31 = test system: UO-31
HCT-116 = test system: HCT-116
OVCAR-8 = test system: OVCAR-8
SNB-19 = test system: SNB-19
A498 = test system: A498
HCT-15 = test system: HCT-15
SW-620 = test system: SW-620
SK-OV-3 = test system: SK-OV-3
HL-60 = test system: HL-60

SMILES	GI50 (SF-268)	GI50 (RPMI-8226)	GI50 (NCI-H522)	GI50 (OVCAR-4)	GI50 (COLO 205)	GI50 (UO-31)	GI50 (HCT-116)	GI50 (OVCAR-8)	GI50 (SNB-19)	GI50 (A498)	GI50 (HCT-15) [µM]	GI50 (SW-620)	GI50 (SK-OV-3)	GI50 (HL-60)
COC(=O)C(=O)C(C(=O)C(=O)Nc1ccccc1C(N)=O)c1nc2ccc(C(=O)c3ccccc3)cc2nc1O (centres undefined)	> 100 µM (inactive)	> 100 µM (inactive)	23.5 µM (inactive)	> 100 µM (inactive)	> 100 µM (inactive)	58.6 µM (inactive)	> 100 µM (inactive)	> 100 µM (inactive)	> 100 µM (inactive)	45 µM (inactive)	> 100	> 100 µM (inactive)		
O=C(O)[C@H](NS(=O)(=O)c1ccc([N+](=O)[O-])cc1)c1ccccc1	> 100 µM (inactive)	> 100 µM (inactive)	> 100 µM (inactive)	> 100 µM (inactive)	> 100 µM (inactive)	> 100 µM (inactive)	> 100 µM (inactive)	> 100 µM (inactive)	> 100 µM (inactive)		> 100	> 100 µM (inactive)	> 100 µM (inactive)	
C=CC[C@@]1(C#N)C[C@H](C[C@]2(C#N)C[C@H](CCl)OC(C)(C)O2)OC(C)(C)O1	> 100 µM (inactive)	52.5 µM (inactive)	46 µM (inactive)	> 100 µM (inactive)	> 100 µM (inactive)	43 µM (inactive)	55.2 µM (inactive)	> 100 µM (inactive)	> 100 µM (inactive)	> 100 µM (inactive)	> 100	> 100 µM (inactive)	> 100 µM (inactive)	36 µM (inactive)
C=C(c1ccccc1)C1(O)CCCCC1N (centres undefined)	> 100 µM (inactive)	50.7 µM (inactive)	> 100 µM (inactive)	> 100 µM (inactive)	> 100 µM (inactive)	> 100 µM (inactive)	> 100 µM (inactive)	> 100 µM (inactive)	> 100 µM (inactive)	> 100 µM (inactive)	> 100	> 100 µM (inactive)	> 100 µM (inactive)	16.6 µM (inactive)
COC(=O)/C=C/C(=O)C1C(C(=O)OC)C2(C(=O)OC)CCC1(C(=O)OC)N2 (centres undefined)	> 100 µM (inactive)	> 100 µM (inactive)		> 100 µM (inactive)	> 100 µM (inactive)	> 100 µM (inactive)	> 100 µM (inactive)	> 100 µM (inactive)	> 100 µM (inactive)		> 100		> 100 µM (inactive)	> 100 µM (inactive)
O=C(CCC(=O)Nc1ccc(Cl)c(Cl)c1)Cc1nc2ccccc2o1	> 100 µM (inactive)	> 100 µM (inactive)	> 100 µM (inactive)	> 100 µM (inactive)	> 100 µM (inactive)	> 100 µM (inactive)	> 100 µM (inactive)	> 100 µM (inactive)	> 100 µM (inactive)	> 100 µM (inactive)	> 100	> 100 µM (inactive)	> 100 µM (inactive)	> 100 µM (inactive)
[O-][N+]1=C(c2ccccc2)COc2ccccc21	> 100 µM (inactive)	67.5 µM (inactive)	> 100 µM (inactive)	> 100 µM (inactive)	> 100 µM (inactive)	> 100 µM (inactive)	> 100 µM (inactive)	> 100 µM (inactive)	> 100 µM (inactive)	> 100 µM (inactive)	> 100	> 100 µM (inactive)	> 100 µM (inactive)	> 100 µM (inactive)
COc1cc(C(Cc2ccccc2)NC(C)=O)oc(=O)c1 (centres undefined)	89.1 µM (inactive)	> 100 µM (inactive)	> 100 µM (inactive)	> 100 µM (inactive)	> 100 µM (inactive)	> 100 µM (inactive)		> 100 µM (inactive)	> 100 µM (inactive)	> 100 µM (inactive)	> 100	> 100 µM (inactive)	> 100 µM (inactive)	> 100 µM (inactive)
COc1cc2c(cc1O)CCN[C@@]21CS[C@H]2c3c(OC(C)=O)c(C)c4c(c3C(COC1=O)N1C2C2NC(Cc3cc(C)c(OC)c(O)c32)[C@@H]1C#N)OCO4 (some centres undefined)	< 0.01 µM (active)	< 0.01 µM (active)		< 0.01 µM (active)	< 0.01 µM (active)	< 0.01 µM (active)	< 0.01 µM (active)		< 0.01 µM (active)	< 0.01 µM (active)	< 0.01	< 0.01 µM (active)		< 0.01 µM (active)
CC(C)N(C(=O)C12C3C4C5C3C1(C(=O)N(C(C)C)C(C)C)C5(C#N)C42)C(C)C (centres undefined)	> 100 µM (inactive)	26.7 µM (inactive)	> 100 µM (inactive)	> 100 µM (inactive)	40.5 µM (inactive)	> 100 µM (inactive)	38.4 µM (inactive)	> 100 µM (inactive)	> 100 µM (inactive)	> 100 µM (inactive)	67.5	17.9 µM (inactive)	> 100 µM (inactive)	21.1 µM (inactive)
CC(C)(C)OC(=O)NC1CCCC1=O (centres undefined)	> 100 µM (inactive)		> 100 µM (inactive)	> 100 µM (inactive)		> 100 µM (inactive)	> 100 µM (inactive)	> 100 µM (inactive)	> 100 µM (inactive)	8.3 µM (inactive)		> 100 µM (inactive)	> 100 µM (inactive)	
CNC1=C(C)C(=O)C(C)=C(C(C)(C)CC(=O)n2cc(F)c(=O)[nH]c2=O)C1=O	55.7 µM (inactive)	6.81 µM (inactive)	35 µM (inactive)		23.6 µM (inactive)	24.3 µM (inactive)	8.2 µM (inactive)	31.6 µM (inactive)	> 65.8 µM (inactive)	> 23.9 µM (inactive)	19.9	39.9 µM (inactive)	> 100 µM (inactive)	17.8 µM (inactive)
C=C1CCC2C(C)(CO)C(O)CCC2(C)C1CC(O)C1=CCOC1=O (centres undefined)	> 100 µM (inactive)	> 100 µM (inactive)	5.36 µM (inactive)	61.1 µM (inactive)	38.5 µM (inactive)	> 100 µM (inactive)	26.5 µM (inactive)	36.1 µM (inactive)	> 100 µM (inactive)	> 100 µM (inactive)	27.4	19.8 µM (inactive)	51.5 µM (inactive)	26.9 µM (inactive)
O=C1COc2cc3c(cc2N1)SCC(=O)N3	> 100 µM (inactive)	> 100 µM (inactive)	> 100 µM (inactive)	> 100 µM (inactive)	> 100 µM (inactive)	> 100 µM (inactive)	> 100 µM (inactive)	> 100 µM (inactive)	> 100 µM (inactive)			> 100 µM (inactive)	> 100 µM (inactive)	> 100 µM (inactive)
COc1ccc(C2C(C(=O)O)=C(COC(C)=O)Oc3cc4c(cc32)OCO4)c(OC)c1 (centres undefined)		> 100 µM (inactive)		> 100 µM (inactive)	> 100 µM (inactive)	> 100 µM (inactive)	> 100 µM (inactive)	> 100 µM (inactive)	> 100 µM (inactive)		> 100	> 100 µM (inactive)	> 100 µM (inactive)	> 100 µM (inactive)
CCOc1cc2ccc3c4cc(OC)c(OC)cc4cnc3c2cc1OCC	> 100 µM (inactive)	> 100 µM (inactive)	> 100 µM (inactive)	> 100 µM (inactive)	> 100 µM (inactive)	> 100 µM (inactive)	> 100 µM (inactive)	> 100 µM (inactive)	> 100 µM (inactive)	> 100 µM (inactive)	> 100	> 100 µM (inactive)	> 100 µM (inactive)	
COC(=O)/C([Se]c1c(C)cc(C)cc1C)=C(\[Se]c1c(C)cc(C)cc1C)C(=O)OC	> 100 µM (inactive)	> 100 µM (inactive)	> 100 µM (inactive)	> 100 µM (inactive)	> 100 µM (inactive)	> 100 µM (inactive)	> 100 µM (inactive)	> 100 µM (inactive)	> 100 µM (inactive)	> 100 µM (inactive)	> 100	> 100 µM (inactive)	> 100 µM (inactive)	> 100 µM (inactive)
Cc1ccc2nc(NC(=O)/C(=N\NC(=S)NN)C3C(=O)NC(=S)NC3=O)sc2c1	> 100 µM (inactive)	> 100 µM (inactive)	> 100 µM (inactive)	> 100 µM (inactive)	> 100 µM (inactive)	> 100 µM (inactive)	> 100 µM (inactive)	> 100 µM (inactive)	> 100 µM (inactive)	> 100 µM (inactive)	> 100	> 100 µM (inactive)	> 100 µM (inactive)	> 100 µM (inactive)
C/N=C(\N)c1ccc(NC(=N)c2ccc(C(=N)Nc3ccc(/C(N)=N/C)cc3)cc2)cc1	> 100 µM (inactive)	> 100 µM (inactive)	> 100 µM (inactive)	> 100 µM (inactive)	> 100 µM (inactive)	> 100 µM (inactive)		> 100 µM (inactive)	> 100 µM (inactive)		> 100	> 100 µM (inactive)	> 100 µM (inactive)	> 100 µM (inactive)
NCC1(N2CCOCC2)C2CCCC21CO (centres undefined)	> 100 µM (inactive)	> 100 µM (inactive)	> 100 µM (inactive)	> 100 µM (inactive)	> 100 µM (inactive)	> 100 µM (inactive)	> 100 µM (inactive)	> 100 µM (inactive)	> 100 µM (inactive)		> 100	> 100 µM (inactive)	> 100 µM (inactive)	> 100 µM (inactive)
COc1ccc([Se][Se]c2ccc(OC)cc2OC)c(OC)c1	2.19 µM (inactive)	2.48 µM (inactive)	1.86 µM (inactive)	2.1 µM (inactive)	6.79 µM (inactive)	2.4 µM (inactive)	2.75 µM (inactive)	4.75 µM (inactive)	3.64 µM (inactive)	18.2 µM (inactive)	1.84	2.59 µM (inactive)	32.4 µM (inactive)	2.43 µM (inactive)
